Experimental data from article PMC12621189, “Optimization of Selective and CNS Penetrant Alkyne-Based TREK Inhibitors: The Discovery and Characterization of ONO-9517601 (VU6022856) and ONO-7927846 (VU6024391)” (Journal of Medicinal Chemistry, 2025).

What was measured:
[1] = Liver microsome intrinsic clearance, mouse; type: in vitro ADME; settings: pH 7.4; mouse liver microsomes, predicted intrinsic clearance; read-out: LMS CLINT mouse
[2] = Rat brain to plasma ratio (Kp, Kp,uu); type: in vivo; settings: male, Sprague Dawley, brain and plasma, intravenous, 0.2 mg/kg; rat brain:plasma
Method: Determination of brain to plasma ratio:
All animal study procedures were approved by the Institutional Animal Care and Use Committee and were conducted in accordance with the National Institutes of Health regulations of animal care covered in Principles of Laboratory Animal Care (National Institutes of Health). All rats were fasted overnight prior to testing.
For determination of the brain over plasma ratio (Kp), compounds were formulated in 8% ethanol, 32% PEG400 and 60% DMSO (v/v/v) and administered as a single 0.2 mg/kg IV dose (1 mL/kg) to male, Sprague Dawley rats (n = 1) via injection into a surgically-implanted jugular vein catheter. At 15 min post dosing, blood sample was collected into chilled, K2EDTA anticoagulant-fortified tube and immediately placed on wet ice. The blood sample was then centrifuged (1700 rcf, 5 minutes, 4 °C) to obtain plasma sample. At the same post-administration time point, whole brain sample was obtained by rapid dissection, rinsed with PBS, and immediately frozen in individual tissue collection box (dry ice). All brain and plasma samples were stored at -80 °C until […]
Sample Analysis: Concentrations in plasma and brain homogenates were quantified by liquid chromatography tandem mass spectrometry (LC-MS/MS). Whole brains were homogenized in 3 mL of 70:30 IPA:water in a mini bead beater for 3 min, and centrifuged at 3,500 g for 5 min. 5 uL of the supernatant was diluted in 15 uL of blank plasma for quantification of the analytes. Plasma samples were centrifuged at 3,500 g for 5 min. A standard curve was generated by diluting the analytes DMSO stocks with blank plasma to obtain a final concentration of 10,000 ng/ml followed by a serial dilution down to 0.5 ng/ml. Quality controls were generated by a serial dilution of the 5,000 ng/ml standard curve solution in blank plasma to obtain 3 concentrations of 500, 50, and 5 ng/ml. 20 uL of brain diluted in plasma, plasma, blank plasma, standard curve and QC samples were loaded in a V-bottom 96-well plate. 120 uL of acetonitrile containing 0.05 uM carbamazepine (internal standard) was added to each well and the plate was centrifuged at 3,500 g for 5 min. 60 uL of the supernatant of each well (protein free) was transferred to a new 96-well plate containing 60 uL of water. The plates were sealed for analysis by LC-MS/MS.
Plasma and brain tissue samples originating from in vivo studies were analyzed by electrospray ionization using an AB Sciex Q-TRAP 5500 (Foster City, CA) that was coupled to a Shimadzu LC-20AD pump (Columbia, MD) and a Leap Technologies CTC PAL auto-sampler (Carrboro, NC). Analytes were separated by gradient elution using a C18 column (3 x 50 mm, 3 mm; Fortis Technologies Ltd, Cheshire, UK) that was thermostated at 40 °C. HPLC mobile phase A was 0.1% formic acid in water (pH unadjusted); mobile phase B was 0.1% formic acid in acetonitrile (pH […]
min, with an isocratic hold for 0.5 min, before transitioning to 10% B over 0.05 min. The column was re-equilibrated (1 min) before the next sample injection. The total run time was 2.55 min, and the HPLC flow rate was 0.5 ml/min. The source temperature was set at 500 °C, and mass spectral analyses were performed using a Turbo-Ion spray source in positive ionization mode (5.0-kV spray voltage) and using multiple-reaction monitoring of transitions specific for the analytes. All data were analyzed using AB Sciex Analyst 1.5.1 software.
Brain plasma concentration ratio (Kp) was calculated by dividing brain concentration by plasma concentration for each animal. Unbound brain to unbound plasma concentration ratio (Kp,uu) is calculated using the following formula: Kp,uu = (Brain ng/g x brain fu)/(plasma ng/ml x plasma fu).
In-vitro determination of blood-brain barrier penetration potential
Blood-brain barrier penetration was determined using MDR1-MDCK cell monolayers by Absorption Systems, following their protocol. In short, compounds were incubated at […] final concentration on one side of the cell monolayer for 2 hours. […]

human TREK-1 (hTREK-1) = target: T1, human TREK-1 (hTREK-1) (Homo sapiens, UniProt O95069); experiment: TREK-1 thallium flux assay (CHO-K1 cells stably expressing hTREK-1); type: cell-based; settings: human TREK-1, thallium flux; read-out: h TREK-1 Tl+ IC50
T1 construct: expressed in transfected cells
T1 sequence (O95069 1-426): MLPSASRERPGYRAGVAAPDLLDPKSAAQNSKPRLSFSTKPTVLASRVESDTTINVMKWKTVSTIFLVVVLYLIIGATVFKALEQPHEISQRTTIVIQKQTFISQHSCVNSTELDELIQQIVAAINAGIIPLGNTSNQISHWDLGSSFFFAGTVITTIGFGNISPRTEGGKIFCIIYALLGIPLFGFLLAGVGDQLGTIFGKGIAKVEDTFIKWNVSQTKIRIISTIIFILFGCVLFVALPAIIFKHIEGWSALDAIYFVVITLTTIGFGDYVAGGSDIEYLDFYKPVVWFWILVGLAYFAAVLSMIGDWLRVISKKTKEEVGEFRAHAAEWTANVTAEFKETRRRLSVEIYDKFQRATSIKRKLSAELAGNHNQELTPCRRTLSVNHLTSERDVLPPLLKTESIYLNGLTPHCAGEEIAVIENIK
Method: Procedures for Biological Experiments
TREK-1 Thallium flux assay
CHO-K1 cells stably expressing hTREK-1 were cultured in T225 flask. The cells were loaded with FluxOR dye and plated in 384 well plate at the experiment day. Test compounds or control compound (tert-butyl (3-((4-(benzyloxy)-2-methylphenyl)carbamoyl)-4-chlorophenyl)carbamate) or 0.3% DMSO (vehicle control) were added directly to the cell plates and incubated for 10 min, and then treated with thallium stimulus buffer to initiate thallium flux.
To measure the efficacy and potency of test compounds, the change in fluorescence intensity (ΔRatio) and % inhibition were calculated using the following equations:
ΔRatio = (fluorescence intensity at 25 seconds after thallium addition)/(average of fluorescent intensity before thallium addition)
0.3% DMSO - ΔRatio of 10 μM control compound)}x100
% inhibition vs compound concentration were plotted in XLfit and calculated IC50.
CHO-K1 cells stably expressing human TREK-1 (hTREK-1) were cultured in T225 flask.
The cells were loaded with FluxOR dye and plated in 384 well plate at the experiment day. Test compounds or control compound (tert-butyl (3-((4-(benzyloxy)-2-methylphenyl)carbamoyl)-4-chlorophenyl)carbamate) or 0.3% DMSO (vehicle control) which were prepared on separate plates were added to the cell plates and incubated for 10 min, and then the cells with test compounds or […]
chlorophenyl)carbamate) or 0.3% DMSO (vehicle control) were treated with thallium stimulus buffer to initiate thallium flux. To measure the efficacy and potency of test compounds, the change in fluorescence intensity (ΔRatio) and % inhibition were calculated using the following equations: […]

[3] = Liver microsome intrinsic clearance, human; type: in vitro ADME; settings: pH 7.4; human liver microsomes, predicted intrinsic clearance; read-out: LMS CLINT human
Method: were incubated in 100 mM potassium phosphate pH 7.4 buffer with 3 mM MgCl2 at 37 °C with constant shaking. After a 5 min preincubation, the reaction was initiated by the addition of NADPH (1 mM). At selected time intervals (0, 3, 7, 15, 25, and 45 min), aliquots were taken and subsequently placed into a 96-well plate containing cold acetonitrile with internal standard (50 ng/mL carbamazepine). Plates were then centrifuged at 3000 rcf (4 °C) for 10 min, and the supernatant was transferred to a separate 96-well plate and diluted 1:1 with water for LC/MS/MS analysis. The in vitro half-life ( 1/2, min, Eq. 1), intrinsic clearance (CLint, mL/min/kg, Eq. 2), and subsequent predicted hepatic clearance (CLhep, mL/min/kg, Eq. 3) was determined employing the […]
where k represents the slope from linear regression analysis of the natural log percent remaining of a test compound as a function of incubation time […]
(2) CLint = in vitroT x mg microsomes x gram liver x kg body wt ascale-up factors: of 20 (human) or 45 (rat) […]
where Qh (hepatic blood flow, mL/min/kg) is 21 (human) or 70 (rat).
LC/MS/MS Bioanalysis of Samples from Plasma Protein Binding and Intrinsic Clearance […]
Samples were analyzed on a Thermo Electron TSQ Quantum Ultra triple quad mass spectrometer (San Jose, CA) via electrospray ionization (ESI) with two Themo Electron Accella pumps (San Jose, CA), and a Leap Technologies CTC PAL autosampler (Carrboro, NC). Analytes were […]

[4] = Rat in vivo PK (plasma clearance) in SAR tables; settings: read-out: Rat CLp
ChromatoLogD = type: physicochemical
mouse TREK-1 (mTREK-1) = target: T2, mouse TREK-1 (mTREK-1) (Mus musculus, UniProt P97438); experiment: mTREK-1 manual patch clamp assay; type: cell-based; settings: mouse TREK-1, manual patch clamp; read-out: TREK-1 IC50 (mouse, MPC)
T2 construct: expressed in transfected cells; host or cells: CHO-K1 (transient)
T2 sequence (P97438 1-426): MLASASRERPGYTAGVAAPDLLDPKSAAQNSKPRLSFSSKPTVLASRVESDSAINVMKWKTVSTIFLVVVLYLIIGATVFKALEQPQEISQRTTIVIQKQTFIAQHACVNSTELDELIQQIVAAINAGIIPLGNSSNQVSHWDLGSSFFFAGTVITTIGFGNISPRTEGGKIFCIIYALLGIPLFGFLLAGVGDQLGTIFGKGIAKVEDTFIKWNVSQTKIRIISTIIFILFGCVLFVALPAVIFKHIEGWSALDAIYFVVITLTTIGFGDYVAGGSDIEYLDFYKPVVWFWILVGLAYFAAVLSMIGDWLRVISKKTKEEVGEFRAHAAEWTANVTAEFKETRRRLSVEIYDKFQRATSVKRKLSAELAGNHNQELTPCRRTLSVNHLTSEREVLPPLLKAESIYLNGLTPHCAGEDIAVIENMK
Method: (§1) hTREK-1 and mTREK-1 patch clamp assay
(§2) CHO-K1 cells stably expressing hTREK-1 or CHO-K1 cells transiently expressing mouse TREK-1 (mTREK-1) were plated on glass coverslips, and voltage clamped in the whole-cell configuration of the patch clamp technique. Cells were voltage clamped at a holding potential of - 80 mV and the stepped to 0 mV for 500 msec. The voltage was subsequently ramped from -120mV to +80 mV over a 500 msec duration. This step-ramp protocol was repeated every 10 sec. The bathing solution contained the following: 135 mM NaCl, 5 mM KCl, 2 mM CaCl2, 1 mM MgCl2, 5 mM D-Glucose, 10 mM HEPES, 10 mM sucrose (adjusted to pH 7.4 with NaOH, 300 mosmol/kg H2O). The pipette solution contained the following: 135 mM KCl, 2 mM MgCl2, 1 mM EGTA, 10 mM HEPES, 2 mM Na2ATP (adjusted to pH 7.35 with KOH, 285 mosmol/kg H2O). Test […]
(§3) compounds were dissolved into the bathing solution. The effects of test compound on the currents were calculated at 0 mV using the following equations:
(§4) % inhibition = (1-post current/pre current) x 100
(§5) % inhibition vs compound concentrations were plotted in GraphPad Prism and calculated IC50. […]

hTREK-1 = target: T3, hTREK-1 (Homo sapiens, UniProt O95069); experiment: hTREK-1 manual patch clamp assay; type: cell-based; settings: human TREK-1, manual patch clamp; read-out: TREK-1 IC50 (human, MPC)
T3 construct: expressed in transfected cells
T3 sequence (O95069 1-426): T1 sequence (O95069 1-426)
Method: as §1, §2, §3, §4, §5

CLint scaled at 1 µM [1] [mL/min/kg]	Kp at 15 min [2]	IC50 (human TREK-1 (hTREK-1)) [nM]	CLint scaled at 1 µM [3] [mL/min/kg]	clearance [4] [mL/min/kg]	chromatographic logD (ChromatoLogD)	IC50 (mouse TREK-1 (mTREK-1)) [nM]	IC50 (hTREK-1) [nM]	Compound
75	0.84	320	18	328	4.03	–	–	Cc1cc(C#Cc2ccccc2)cnc1NC(=O)c1cc(C(=O)N2CC(F)(F)C2)ccc1Cl [Compound 13a, 2-Chloro-5-(3,3-difluoroazetidine-1-carbonyl)-N-[3-methyl-5-(2-phenylethynyl)-2-pyridyl]benzamide]
107	0.89	130	36	16.2	4.14	–	–	Cc1cc(C#Cc2ccccc2)cnc1NC(=O)c1cc(OCC2COCCO2)ccc1Cl (stereo not shown) [Compound 13c, 2-Chloro-5-(1,4-dioxan-2-ylmethoxy)-N-[3-methyl-5-(2-phenylethynyl)-2-pyridyl]benzamide]
–	–	110	–	–	4.14	1200	11	Cc1cc(C#Cc2ccccc2)cnc1NC(=O)c1cc(OC[C@H]2COCCO2)ccc1Cl [Compound 13d, (R)-5-((1,4-Dioxan-2-yl)methoxy)-2-chloro-N-(3-methyl-5-(phenylethynyl)pyridin-2-yl)benzamide]
